Measured values from article PMC3871589, “Evaluation of STAT3 Signaling in ALDH+ and ALDH+/CD44+/CD24− Subpopulations of Breast Cancer Cells” (PLoS ONE, 2013).

Legend:
[1] = system: ERK 1/2 (T202/Y204) phosphorylation; test: Western blot of ERK phosphorylation in un-separated breast cancer cells; type: cell-based, human; details: 10 µM, 24 hours
Description: After sorting by flow cytometry, ALDH^+ and ALDH^+/CD44^+/CD24^− stem-like cells were cultured in serum-free stem cell medium in ultra-low attachment six-well plates (Corning) to maintain cancer stem cell characteristics. ALDH^−, ALDH^−/CD44^+/CD24^+cells and un-separated cells were cultured in regular medium and replaced with identical stem cell medium for three days before being harvested. To assess the effects of STAT3 inhibitors, ALDH^+ and ALDH^+/CD44^+/CD24^− subpopulations of breast cancer cells were treated with LLL12 (5 µmol/L) of or static (10 µmol/L) for 24 hours. STAT3, or control GFP shRNA lentivirus (CTL ShRNA) was introduced into ALDH^+ breast cancer stem-like cells for 48 hours, then followed by selection with puromycin (0.2 µg/ml) for 72 hours. Antibodies (Cell Signaling Tech.) against phospho-specific STAT3 (Tyrosine 705) (P-STAT3, Y705), ERK1/2 (Threonine 202/Tyrosine 204), cleaved Poly (ADP-ribose) polymerase (PARP), ALDH1, cleaved caspase-3, and GAPDH were used for western blots.
LLL12 was synthesized in Dr. Pui-Kai Li’s laboratory (College of Pharmacy, The Ohio State University). Un-separated cells were treated with 10 µM of LLL12 or DMSO for 24 hours, and the phosphorylation of STAT3 (Y705), and ERK 1/2 (T202/Y204), and expression of STAT3 downstream genes, cleaved caspase-3, and PARP were detected by Western blots. (JPG) Click here for additional data file.

[2] = system: STAT3 target genes; test: RT-PCR of STAT3 downstream target genes in ALDH+ cells; type: cell-based, human; details: 5 µM, 24 h
Description: (§1) The ALDH^+ and ALDH^+/CD44^+/CD24^− subpopulations of breast cancer cells were treated with LLL12 (5 µM) or DMSO for 24 h. RNA from the cells was then collected using RNeasy Kits (Qiagen). cDNA was constructed from a 500 ng sample of RNA using Omniscript RT (Qiagen). Primer sequences and source information can be found in Table S1. The intensity of bands was quantified and normalized to GAPDH.

[3] = biological target: PDK1 (Homo sapiens, UniProt O15530); test: Kinase profiler assay, PDK1; type: biochemical; details: bound stated jointly for the other protein kinases; Table S3
Description: (§2) The effects of LLL12 on twenty six purified human protein kinases were performed at the Millipore UK Limited (Dundee, UK) and Reaction Biology Corp. (Malvern, PA) using the Kinase profiler assay. Assays contained a peptide substrate, purified recombinant human protein kinases to be tested, and gamma-labeled ATP, magnesiumion. Radioactive phosphorylated product was measured and quantitated via a scintillation counter.

[4] = system: ALDH+ subpopulation in MDA-MB-231, SUM159, and SK-BR3 cancer cells; test: ALDEFLUOR assay, percentage of ALDH+ subpopulation; type: cell-based, human; details: un-separated MDA-MB-231, SUM159, SK-BR3; LLL12 5 µmol/L or Stattic 10 µM, 24 hours
Description: (§3) The ALDEFLUOR kit (StemCell Technologies) was used to isolate the population with high ALDH enzymatic activity as previously described. Briefly, cells were trypsinized to single cells using 0.05% trypsin and subsequently suspended in ALDEFLUOR assay buffer containing ALDH substrate (BAAA, 1 µmol/l per 1×10^6 cells) and then incubated for 40 minutes at 37°C. For each sample, an aliquot of cells was stained under identical conditions with 15 mmol/L diethylaminobenzaldehyde (DEAB), a specific ALDH inhibitor, as an ALDH^− control. Anti-human PE-CD24 and PE-Cy5-CD44 antibody (BioLegend) were used for CD44/CD24 identification and to separate ALDH^+/CD44^+/CD24^− and ALDH^−/CD44^+/CD24^+ cells when combined with ALDH staining. Analysis was performed using a FACStarPLUS (Becton Dickinion) flow cytometer. To assess the effect of STAT3 inhibitors on the subpopulation of ALDH^+ cells, un-separated breast cancer cells were treated with 5 µmol/L of LLL12 or 10 µmol/L Stattic for 24 hours prior to performing the ALDEFLUOR assay.

[5] = system: STAT3 phosphorylation; test: Western blot of STAT3 phosphorylation in ALDH+/CD44+/CD24− cells; type: cell-based, human; details: ALDH+/CD44+/CD24− subpopulation of MDA-MB-231 and SUM159; 0.5–5 µM
Description: as §3
(§4) After sorting by flow cytometry, ALDH^+ and ALDH^+/CD44^+/CD24^− stem-like cells were cultured in serum-free stem cell medium in ultra-low attachment six-well plates (Corning) to maintain cancer stem cell characteristics. […]

[6] = system: ALDH+ subpopulation from MDA-MB-231, SUM159, and SK-BR3 cells; test: MTT cell viability assay, ALDH+ subpopulation; type: cell-based, human; details: 1 to 10 µmol/L 72 hours, ShRNA 48 hours
Description: The breast cancer cells were seeded in 96-well plates (3,000 cells/well) in triplicates in a serum-free mammary epithelial basal medium. The following day, cancer cells were treated with 1 to 10 µmol/L of LLL12 or Stattic for 72 hours, STAT3 ShRNA or control GFP shRNA lentivirus (CTL ShRNA) for 48 hours. MTT (Thiazolyl Blue Tetrazolium Bromide, Sigma-Aldrich) assay was used to determine the cell viability.

[7] = biological target: c-Raf (Homo sapiens, UniProt P04049); test: Kinase profiler assay, c-Raf; type: biochemical; details: bound stated jointly for the other protein kinases; Table S3
Description: as §2

[8] = biological target: Yes (Homo sapiens, UniProt P07947); test: Kinase profiler assay, Yes; type: biochemical; details: 10 concentrations, 100 µM highest; Table S3
Description: as §2

[9] = biological target: mTOR (Homo sapiens, UniProt P42345); test: Kinase profiler assay, mTOR; type: biochemical; details: bound stated jointly for the other protein kinases; Table S3
Description: as §2

[10] = system: ALDH+/CD44+/CD24− subpopulation of MDA-MB-231 and SUM159 breast cancer cells; test: Tumorsphere formation of ALDH+/CD44+/CD24− subpopulation; type: cell-based, human; details: Figure 5E
Description: ALDH^+ and ALDH^+/CD44^+/CD24^− cells were plated as single cells in ultra-low attachment six-well plates at a density of 250, 500, 1000 or 50,000 viable cells/well as previously described. On the second day after seeding, the ALDH^+ cancer cells were treated with 2.5–10 µmol/L of LLL12 or Stattic. For tumorsphere forming capacity assay, ALDH^+ or ALDH^− cells were plated as single cells in ultra-low attachment six-well plates at a density of 250, 500 or 1000 viable cells/well. Tumorsphere growth was observed under a microscope 10 to 15 days later.

[11] = biological target: Fes (Homo sapiens, UniProt P07332); test: Kinase profiler assay, Fes; type: biochemical; details: 10 concentrations, 100 µM highest; Table S3
Description: as §2

[12] = system: STAT3-regulated genes; test: RT-PCR of STAT3-regulated genes in ALDH+/CD44+/CD24− cells; type: cell-based, human; details: 5 µM, 24 h
Description: as §1

[13] = system: ALDH+ subpopulation of MDA-MB-231, SUM159, and SK-BR-3 cells; test: Cleaved caspase-3 in ALDH+ cells; type: cell-based, human; details: LLL12 5 µmol/L 24 hours, ShRNA 48 hours then puromycin
Description: as §3, §4

[14] = biological target: PI3K; test: Kinase profiler assay, PI3K; type: biochemical, human; details: bound stated jointly for the other protein kinases; Table S3
Description: as §2

Chain of c-Raf (P04049 whole entry): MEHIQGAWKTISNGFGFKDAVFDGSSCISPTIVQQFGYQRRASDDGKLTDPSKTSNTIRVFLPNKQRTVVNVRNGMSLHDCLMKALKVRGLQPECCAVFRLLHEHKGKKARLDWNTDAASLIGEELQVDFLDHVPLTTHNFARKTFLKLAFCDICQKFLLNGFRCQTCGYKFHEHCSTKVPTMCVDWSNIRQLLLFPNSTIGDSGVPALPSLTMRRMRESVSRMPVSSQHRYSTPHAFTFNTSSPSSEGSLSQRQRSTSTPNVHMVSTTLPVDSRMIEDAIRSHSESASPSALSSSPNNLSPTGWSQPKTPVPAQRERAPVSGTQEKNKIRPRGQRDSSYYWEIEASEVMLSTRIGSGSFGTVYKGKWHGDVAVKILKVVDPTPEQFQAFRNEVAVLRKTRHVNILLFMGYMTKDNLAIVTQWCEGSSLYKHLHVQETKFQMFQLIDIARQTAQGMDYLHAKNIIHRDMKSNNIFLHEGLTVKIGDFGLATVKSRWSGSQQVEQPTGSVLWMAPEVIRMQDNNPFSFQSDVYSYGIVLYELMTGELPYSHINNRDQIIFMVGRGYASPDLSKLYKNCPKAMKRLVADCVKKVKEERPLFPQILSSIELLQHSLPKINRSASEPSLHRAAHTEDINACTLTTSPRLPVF
Chain of Yes (P07947 whole entry): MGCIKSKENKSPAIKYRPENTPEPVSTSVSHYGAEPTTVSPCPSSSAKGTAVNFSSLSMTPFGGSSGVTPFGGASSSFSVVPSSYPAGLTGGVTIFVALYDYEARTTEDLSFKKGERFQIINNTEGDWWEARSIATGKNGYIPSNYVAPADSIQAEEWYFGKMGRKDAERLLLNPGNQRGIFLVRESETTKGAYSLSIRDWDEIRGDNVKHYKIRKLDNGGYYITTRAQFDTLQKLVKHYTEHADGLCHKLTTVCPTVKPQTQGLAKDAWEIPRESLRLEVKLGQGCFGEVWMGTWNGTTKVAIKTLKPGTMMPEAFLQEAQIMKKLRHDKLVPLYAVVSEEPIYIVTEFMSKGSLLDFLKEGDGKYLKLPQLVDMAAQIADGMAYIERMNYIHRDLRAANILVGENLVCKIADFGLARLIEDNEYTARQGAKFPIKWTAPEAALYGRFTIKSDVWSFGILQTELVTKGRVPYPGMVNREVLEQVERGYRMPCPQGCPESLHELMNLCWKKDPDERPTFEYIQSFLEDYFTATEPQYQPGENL
Chain of PDK1 (O15530 whole entry): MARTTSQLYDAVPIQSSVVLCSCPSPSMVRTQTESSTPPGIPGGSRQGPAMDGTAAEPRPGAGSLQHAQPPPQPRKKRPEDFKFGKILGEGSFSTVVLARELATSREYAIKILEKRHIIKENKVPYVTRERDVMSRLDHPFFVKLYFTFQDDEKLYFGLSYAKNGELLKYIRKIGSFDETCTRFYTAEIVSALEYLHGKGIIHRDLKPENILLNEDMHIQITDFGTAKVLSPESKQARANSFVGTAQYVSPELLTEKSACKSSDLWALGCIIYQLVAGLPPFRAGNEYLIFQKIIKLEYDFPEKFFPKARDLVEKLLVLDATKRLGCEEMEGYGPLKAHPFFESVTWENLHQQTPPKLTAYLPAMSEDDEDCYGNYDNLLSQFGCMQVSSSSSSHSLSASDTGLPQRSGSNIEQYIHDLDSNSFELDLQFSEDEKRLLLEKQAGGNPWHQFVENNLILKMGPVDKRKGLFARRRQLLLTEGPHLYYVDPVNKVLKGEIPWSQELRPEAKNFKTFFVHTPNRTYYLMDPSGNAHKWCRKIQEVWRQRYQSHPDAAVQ
Chain of Fes (P07332 whole entry): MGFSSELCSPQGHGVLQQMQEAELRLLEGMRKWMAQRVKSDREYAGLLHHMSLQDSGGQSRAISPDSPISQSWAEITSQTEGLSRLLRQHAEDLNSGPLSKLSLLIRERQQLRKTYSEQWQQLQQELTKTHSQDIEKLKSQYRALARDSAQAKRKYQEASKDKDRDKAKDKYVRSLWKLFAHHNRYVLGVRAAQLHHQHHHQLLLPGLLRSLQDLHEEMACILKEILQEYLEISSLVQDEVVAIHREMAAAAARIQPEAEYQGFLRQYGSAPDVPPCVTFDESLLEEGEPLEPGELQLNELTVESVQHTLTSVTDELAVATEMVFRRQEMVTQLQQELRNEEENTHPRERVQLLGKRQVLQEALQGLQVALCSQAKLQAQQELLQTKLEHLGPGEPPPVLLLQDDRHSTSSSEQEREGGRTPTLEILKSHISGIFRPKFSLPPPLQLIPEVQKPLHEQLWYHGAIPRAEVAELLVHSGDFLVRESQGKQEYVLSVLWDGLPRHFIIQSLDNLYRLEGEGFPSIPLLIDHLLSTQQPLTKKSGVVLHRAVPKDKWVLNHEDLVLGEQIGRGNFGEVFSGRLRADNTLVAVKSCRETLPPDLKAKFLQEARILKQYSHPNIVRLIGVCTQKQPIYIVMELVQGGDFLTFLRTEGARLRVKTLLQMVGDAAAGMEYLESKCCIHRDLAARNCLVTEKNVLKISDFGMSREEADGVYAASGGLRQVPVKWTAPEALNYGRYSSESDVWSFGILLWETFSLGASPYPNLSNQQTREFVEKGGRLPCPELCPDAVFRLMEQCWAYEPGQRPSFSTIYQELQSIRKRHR

**Q.** What does the source list for `NS(=O)(=O)c1cccc2c1C(=O)c1cccc(O)c1C2=O` [LLL12]?
**A.** phosphorylation of ERK [1]: did not inhibit; expression of STAT3 target genes Cyclin D1, survivin, Bcl-2, Bcl-XL, MMP-2, and MMP-9 ([2]; ALDH+ breast cancer cells): down-regulated; Twist1, Notch-1, and Notch-3 expression ([2]; ALDH+ breast cancer stem-like cells): inhibited; IC50 [3]: ≥ 77.9 µM; ALDH+ subpopulation (percentage) [4]: decrease; STAT3 phosphorylation [5]: inhibited; cell viability of the ALDH+ subpopulation [6]: inhibit; IC50 [7]: ≥ 77.9 µM; IC50 [8]: > 100 µM; IC50 [9]: ≥ 77.9 µM; tumorsphere forming capacity [10]: inhibited; IC50 [11]: > 100 µM; expression of Cyclin D1, survivin, Bcl-2, Bcl-XL and Notch1 [12]: down-regulated; cleaved caspase-3 in ALDH+ cells [13]: induced cleaved caspase-3; IC50 [14]: ≥ 77.9 µM
